One compound from patent US11096952B2, “Chemicals and methods to prevent and treat TGF-beta mediated activation of fibroblasts to reduce and treat cancer and fibrosis” (Board of Supervisors of Louisiana State University and …, priority 2016, dated 2021) can be followed below.

In one assay the test system is MRC-5 fibroblasts. Nature of the assay: Collagen/Matrigel contraction of MRC-5 fibroblasts. To be noted: MRC-5 in collagen/Matrigel, 120 nM digoxin, 5 ng/ml TGF-β, 4 days.
The test system of assay [1] is TGF-β-induced CAF differentiation markers. The assay is described as follows: Real-Time PCR of CAF markers in MRC-5 fibroblasts. The assay is classed as cell-based, human. The settings on record: MRC-5, 120 nM digoxin, 5 ng/ml TGF-β, 24 h. How it is done: (§1) In order to determine if digoxin prevents CAF differentiation or simply TGF-β-induced fibronectin expression, the inventors performed quantitative reverse transcriptase-PCR (qPCR) to analyze other CAF markers, including α-SMA, collagen 1a1 (COL1A1), fibroblast activation protein (FAP), and tenascin C (TNC). RNA was extracted from cells treated with 120 nM digoxin±TGF-β for 24 hours. […] Additionally, the inventors observed that α-SMA mRNA expression was already high in WPMY-1 cells and not increased by addition of TGF-β, but was reduced in response to digoxin treatment.

For the next assay, the system named is SMAD promoter activity. The assay is described as follows: SMAD luciferase reporter in WPMY-1 cells. To be noted: WPMY-1, digoxin 60 or 120 nM, 5 ng/ml TGF-β, 24 hours. Type of assay: cell-based, human. How it is done: A) WPMY-1 human fibroblast cells transfected with SMAD (left) or EGR1 (right) luciferase reporter were treated with or without 5 ng/ml TGF-β in the presence or absence of Digoxin (60 or 120 nM) for 24 hours. Relative luciferase activity is shown. *P<0.05, **P<0.01, ***P<0.001 are significant differences compared to values set to 1 (n=3, Values are ±SEM). B) J2 mouse fibroblast cells were treated with or without 5 ng/ml TGF-β in the presence or absence of increasing concentrations (30, 60, 120, or 240 nM) of digoxin for 24 hours. Representative blot is shown with two exposures of fibronectin to account for strong signal intensity (n=3).
Finally, J2 mouse fibroblast cells were treated with or without 5 ng/ml TGF-β in the presence or absence of increasing concentrations (30, 60, 120, or 240 nM) of digoxin for 24 hours.
A general note: Reporter assays use an easily measured gene product as a stand-in for the process of interest.

Assay [2] concerns activated fibroblast phenotype (fibronectin, YAP, TAZ, smooth muscle actin). The assay is described as follows: Western blot of activated fibroblast markers (FN, YAP, TAZ, SMA) in MRC-5 lung fibroblasts induced by growth factors. Type of assay: cell-based, human. How it is done:
FIG. 10C: MRC-5 lung fibroblast cells were serum-starved 24 hours then treated with 10 ng/mL TGF-β in serum-free media for 24 hours with or without verteporfin at the indicated concentration. FN: fibronectin, YAP: yes-activated protein, TAZ: transcriptional coactivator with PDZ-binding motif, and SMA(ACTA2): smooth muscle actin. Representative western blot is shown (n=3).
FIG. […] T.F.8: combination TGF, FGF, IL8. […] FN: fibronectin, YAP: yes-activated protein, TAZ: transcriptional coactivator with PDZ-binding motif, and SMA(ACTA2): smooth muscle actin. Representative western blot is shown (n=2).
On the technique in general: In western blotting, separated proteins are transferred to a membrane and probed.

Assay [3] deals with TGF-β-induced CAF differentiation markers. Nature of the assay: Real-Time PCR of CAF markers in WPMY-1 fibroblasts. Type of assay: cell-based, human. To be noted: WPMY-1, 120 nM digoxin, 24 h. How it is done: as §1
In general terms: Quantitative PCR measures a nucleic acid by following its amplification.

The subject of assay [4] is TGF-β-induced fibronectin expression. Nature of the assay: Western blot of TGF-β-induced fibronectin expression in WPMY-1 fibroblasts. Type of assay: cell-based, human. To be noted: WPMY-1, 5 ng/ml TGF-β, digoxin 30, 60, 120, 240 nM, 24 hours. How it is done: Inhibitors of CAF Differentiation. A. WPMY-1 cells were plated into each well of 4-chamber slice (for IF), or (C) in a 24 well plate (for western blot analysis). After cell attachment, vehicle or 5 ng/ml TGF-β was added into each well and incubated for 24 h in a 37° C. in a humidified incubator containing 5% CO2. For fluorescence detection (A), cells were fixed and stained with antibody detecting fibronectin and/or stained with DAPI to detect the nuclei. Protein was extracted with boiling Lamaelli buffer for WB (C) and blots were probed with anti-fibronectin or anti-tubulin antibodies. Fibronectin fluorescence (D and E) was measured in the presence or absence of TGF-β in 8 well replicates as follows. Cells were conditioned in serum-free DMEM for 48 hr prior to the addition of TGF-β. Images were acquired using a Cellomics platform with a mask shown in the schematic of (B). The mean of the total fluorescence intensity in each well was calculated from 300 cells per image field and up to 15 fields from each well for fibronectin. The fold change in fibronectin expression per acquired image (nuclei) is shown (Mean+/−SD).
Panel A1 is the control, Panel A2 is the TGF-β treated wells and Panel A3 is TGF-β plus PsA at 5 micromolar. Images were captured using the Cellomics imaging system.
Representative blots are shown with two exposures of fibronectin to account for strong signal intensity. n=3.
FIGS. 9A-9B: Increases in intracellular Ca^2+ prevent TGF-β-induced fibronectin expression. (A) WPMY-1 fibroblasts were treated with 2.5 μM thapsigargin±5 ng/ml TGF-β for 24 hours. (B) WPMY-1 fibroblasts were treated with 2.5-10 μM 3′,4′-dichlorobenzamil hydrochloride (DCB)±5 ng/ml TGF-β for 24 hours. Cell lysates were analyzed by western blot for fibronectin expression.
Because of the observed low nanomolar effective concentration of the cardiac glycosides, the inventors hypothesized that the cardiac glycosides may be acting by binding to their high affinity target, the Na^+/K^+ ATPase, and that action through the ATPase is the mechanism by which the cardiac glycosides are able to block TGF-β-induced fibronectin expression. It is well documented that inhibition of the Na^+/K^+ ATPase by digoxin leads to increases in intracellular Ca^2+ by preventing Ca^2+ efflux through the Na^+/Ca^2+ exchanger. In order to determine if increased intracellular Ca^2+ is sufficient to prevent TGF-β-induced fibronectin expression, the inventors utilized two compounds that increase intracellular Ca^2+ concentrations. 3′,4′-dichlorobenzamil hydrochloride (DCB) inhibits the Na^+/Ca^2+ exchanger, Na^+ transport, and sarcoplasmic reticulum Ca^2+ release channels. Thapsigargin inhibits the endoplasmic reticulum Ca^+ ATPase, preventing storage of Ca^2+ in the endoplasmic reticulurn, causing an accumulation in the cytoplasm. Cells were treated with 2.5-10 μM of DCB or thapsigargin±TGF-β for 24 hours.

Assay [5] relates to transcriptional upregulation of activated fibroblasts markers by TGF-β or IL-8. To be noted: MRC-5, 10 ng/mL TGF-β or 20 ng/ml IL-8, 24 hours; digoxin 150 nM, pyrvinium 300 nM. The method, then: Expression of the indicated genes was analyzed by real-time qPCR. TGFβ treated samples were set at 1 and other conditions were normalized accordingly. FN1: fibronectin, YAPv4: yes-activated protein, TNC: tenascin C, Col1A1: collagen 1a1, WWTR1v2: WW domain-containing transcription regulator protein 1 (TAZ), and SNAI1: Snail1. Representative data from at least two independent experiments are provided.

Each structure is given as a SMILES string.

With `C[C@H]1O[C@@H](O[C@H]2[C@@H](O)C[C@H](O[C@H]3[C@@H](O)C[C@H](O[C@H]4CC[C@@]5(C)[C@H](CC[C@@H]6[C@@H]5C[C@@H](O)[C@]5(C)[C@@H](C7=CC(=O)OC7)CC[C@]65O)C4)O[C@@H]3C)O[C@@H]2C)C[C@H](O)[C@@H]1O` [digoxin], the “TGF-β induced contraction of fibroblasts” value in the assay on MRC-5 fibroblasts is recorded as “inhibits TGF-β induced contraction of fibroblasts”. Besides, the “TGF-β-induced expression of FN1, α-SMA, COL1A1, TNC mRNA” value in assay [1] was “prevented TGF-β-induced expression”. In the assay on SMAD promoter activity, the “TGF-β-induced SMAD promoter (luciferase) activity” value is “prevents the TGF-β induction of the SMAD signaling pathway”. For the same compound, the “activated fibroblast phenotype induced by TGF-β and FGF (fibronectin, YAP, TAZ, smooth muscle actin)” value in assay [2] (MRC-5, 10 ng/mL TGF-β and 20 ng/ml FGF, 24 hours) is reported as “able to prevent the activated fibroblast phenotype”. Further, in assay [2] (MRC-5, 10 ng/mL TGF-β and 20 ng/ml FGF, 24 hours, nintedanib 200 nM), the “activated fibroblast phenotype upon TGF-β and FGF, compared with nintedanib” value is “able to block the activated fibroblast phenotype better than nintedanib”. Further, the “fibroblast activation from a combination of growth factors (TGF, FGF, IL8)” value in assay [2] (MRC-5, 10 ng/mL TGF-β, 20 ng/mL FGF, 20 ng/mL IL-8, digoxin 250 nM, pyrvinium 500 nM vs pirfenidone 500 μm, nintedanib 250 nM) is “able to block fibroblast activation from a combination of growth factors better than pirfenidone or nintedanib”. Also, the “induction of fibronectin, YAP, TAZ, smooth muscle actin by TGF-β” value in assay [2] (MRC-5, 10 ng/mL TGF-β, serum-free, 24 hours, dose escalation) is “block the induction of activated fibroblasts”. Moreover, the “TGF-β-induced expression of FN1, COL1A1, FAP, TNC mRNA” value in assay [3] (5 ng/ml TGF-β) was “prevented TGF-β-induced expression of FN1, COL1A1, FAP, and TNC mRNA”. In assay [3], the “α-SMA mRNA expression” value is “reduced”. The “TGF-β-induced fibronectin expression (western blot)” value in assay [4] is recorded as “prevents TGF-β-induced fibronectin expression in a dose dependent manner”. For the same compound, in assay [5], the “transcriptional induction of collagen 1a1, tenascin C, fibronectin, YAP, Snail (TGF-β) and TAZ (IL-8)” value was “prevented the transcriptional induction of collagen 1a1, tenascin C, fibronectin, YAP and Snail downstream of TGF-β signaling and TAZ downstream of the fibroblast chemokine IL-8”.
